The values that follow come from US10548910B2, “Amido-substituted pyridotriazine derivatives useful as HIV integrase inhibitors” (priority 2015, dated 2020).

SMILES strings stand for the structures. Like-named read-outs stand apart in the source and are kept apart here.

In this assay the test system is HIV-1. Description: HIV-1 infection assay (MT4-GFP cells, inhibition of reproductive ratio R0). Type of assay: cell-based. As to the method: Assessing Antiviral Potency Using An HIV-1 Infection Assay
HIV-1 replication was monitored using MT4-gag-GFP clone D3 (hereafter designate MT4-GFP), which are MT-4 cells modified to harbor a GFP reporter gene, the expression of which is dependent on the HIV-1 expressed proteins tat and rev. Productive infection of an MT4-GFP cell with HIV-1 results in GFP expression approximately 24 h post-infection.
MT4-GFP cells were maintained at 37° C./5% CO2/90% relative humidity in RPMI 1640 supplemented with 10% fetal bovine serum, 100 U/ml penicillin/streptomycin, and 400 μg/ml G418 to maintain the reporter gene. For infections, MT4-GFP cells were placed in the same medium lacking G418 and infected overnight with H9IIIB or NL4-3 virus at an approximate multiplicity of infection of 0.01 in the same incubation conditions. Cells were then washed and resuspended in either RPMI 1640 containing no serum at 1.6×10^5 cells/mL (serum free conditions), 10% normal human serum at 1.6×10^5 cells/mL (10% NHS conditions) or in 100% normal human serum at 2×10^5 cells/mL (100% NHS conditions). Compound plates were prepared by dispensing compounds taken up in DMSO into wells of 384 well poly D lysine-coated plates (0.2 μl/well) using an ECHO acoustic dispenser. Each compound was tested in a 10 point serial 3-fold dilution (typical final concentrations: 4.2 μM-0.21 nM). Controls included no inhibitor (DMSO only) and a combination of three antiviral agents (efavirenz, indinavir, and the integrase strand transfer inhibitor L-002254051 at final concentrations of 4 μM each). Cells were added (50 μL/well) to compound plates and the infected cells were maintained at 37° C./5% CO2/90% relative humidity.
Infected cells were quantified at two time points, ˜48 h and ˜72 h post-infection, by counting the number of green cells in each well using an Acumen eX3 scanner. The increase in the number of green cells over ˜24 h period gives the reproductive ratio, R0, which is typically 5-15 and has been shown experimentally to be in logarithmic phase (data not shown). Inhibition of R0 is calculated for each well, and IC50 value was determined using non-linear 4-parameter curve fitting.

Where [1] appears, read: MT4-GFP cells infected with H9IIIB or NL4-3 virus, 0% NHS (serum free conditions), read-out: VIKING IP (nM) with 0% NHS.
Setting [2] is: MT4-GFP cells infected with H9IIIB or NL4-3 virus, 100% normal human serum, read-out: VIKING IP (nM) with 100% NHS.
Setting [3] is: Human immunodeficiency virus 1, NL43, MT4-GFP cells infected with H9IIIB or NL4-3 virus, 0% NHS (serum free conditions), read-out: VIKING IP (nM) with 0% NHS.
[4] abbreviates: Human immunodeficiency virus 1, NL43, MT4-GFP cells infected with H9IIIB or NL4-3 virus, 100% normal human serum, read-out: VIKING IP (nM) with 100% NHS.

With `CCOP(=O)(OCC)[C@@H]1CCC2(C1)N(C)C(=O)c1c(O)c(=O)c(C(=O)NCc3ccc(F)cc3F)cn1N2C` (single isomer, unassigned) [Compound 30], the IC50 worked out at 13.7 nM under setting [1] and 1050 nM under setting [2].
For the compound `CCN1C(=O)c2c(O)c(=O)c(C(=O)NCc3ccc(F)cc3F)cn2N(CCP(=O)(N[C@@H](C)C(=O)OC(C)C)Oc2ccccc2)C12CCCC2` (stereo partly shown) [Compound 9], for the setting “Human immunodeficiency virus 1, NL43, read-out: VIKING IP (nM) with 0% NHS”, the IC50 turned out to be 3.8 nM.
For `CC(C)OC(=O)OCOP(=O)(CCN1n2cc(C(=O)NCc3ccc(F)cc3F)c(=O)c(O)c2C(=O)N(C)C12CCCC2)OCOC(=O)OC(C)C` [Compound 7], the IC50 reads like this: under setting [3], 0.2 nM; under setting [4], 2.1 nM.
On the same counts, the results for `CCOP(=O)(CCN1n2cc(C(=O)NCc3ccc(F)cc3F)c(=O)c(O)c2C(=O)N(C)C12CCCC2)OCC` [Compound 2] are 2.8 nM and 81.1 nM.
Take `CC(C)OC(=O)OCOP(=O)(OCOC(=O)OC(C)C)[C@H]1CCC2(C1)N(C)C(=O)c1c(O)c(=O)c(C(=O)NCc3ccc(F)cc3F)cn1N2C` (single isomer, unassigned) [Compound 26]: the IC50 is, setting by setting: under setting [1], 1 nM; under setting [2], 35.9 nM.
`CC(C)OC(=O)OCOP(=O)(O)CCN1n2cc(C(=O)NCc3ccc(F)cc3F)c(=O)c(O)c2C(=O)N(C)C12CCCC2` [Compound 8]: the IC50 worked out at 2.3 nM under setting [3] and 660 nM under setting [4].
As to `CCN1C(=O)c2c(O)c(=O)c(C(=O)NCc3ccc(F)cc3F)cn2N(CCP(=O)(O)O)C12CCCC2` [Compound 34], the IC50 under setting [3] was found to be 15.4 nM and the IC50 under setting [4] was 2490 nM.
Take `CN1C(=O)c2c(O)c(=O)c(C(=O)NCc3ccc(F)cc3F)cn2N(C)C12CC[C@@H](P(=O)(O)O)C2` (single isomer, unassigned) [Compound 28]: the IC50 reads like this: under setting [3], 221 nM; under setting [2], 420 nM.
On to `CCOP(=O)(OCC)[C@H]1CCC2(C1)N(C)C(=O)c1c(O)c(=O)c(C(=O)NCc3ccc(F)cc3F)cn1N2C` (single isomer, unassigned) [Compound 24], for which the IC50 by setting is: under setting [3], 9.1 nM; under setting [4], 4120 nM.
Take `CN1C(=O)c2c(O)c(=O)c(C(=O)NCc3ccc(F)cc3F)cn2N(C)C12CC[C@@H](P(=O)(O)O)C2` (single isomer, unassigned) [Compound 31]: the IC50 reads like this: under setting [1], 206 nM; under setting [2], 1070 nM.
As to `CC(C)OC(=O)OCOP(=O)(OCOC(=O)OC(C)C)[C@H]1CCC2(C1)N(C)C(=O)c1c(O)c(=O)c(C(=O)NCc3ccc(F)cc3F)cn1N2C` (single isomer, unassigned) [Compound 23], the IC50 came to 0.28 nM under setting [1] and 3.6 nM under setting [2].
For the compound `CCN1C(=O)c2c(O)c(=O)c(C(=O)NCc3ccc(F)cc3F)cn2N(C)C12CCC(P(=O)(OCOC(=O)OC(C)C)OCOC(=O)OC(C)C)C2` (stereo not shown) [Compound 37], the IC50 is, setting by setting: under setting [3], 0.2 nM; under setting [4], 2.8 nM.
In the case of `CN1C(=O)c2c(O)c(=O)c(C(=O)NCc3ccc(F)cc3F)cn2N(CCP(=O)(O)O)C12CCCC2` [Compound 4], the IC50 is 32.2 nM under setting [3] and 2750 nM under setting [4].
Consider `CC(C)OC(=O)OCOP(=O)(OCOC(=O)OC(C)C)[C@@H]1CCC2(C1)N(C)C(=O)c1c(O)c(=O)c(C(=O)NCc3ccc(F)cc3F)cn1N2C` (single isomer, unassigned) [Compound 32], for which the IC50 was found to be 0.9 nM under setting [1] and 7 nM under setting [2].
Turning to `CN1C(=O)c2c(O)c(=O)c(C(=O)NCc3ccc(F)cc3F)cn2N(C)C12CC[C@H](P(=O)(O)O)C2` (single isomer, unassigned) [Compound 25], the IC50 stood at 190 nM under setting [3] and 1070 nM under setting [2].
With `CCN1C(=O)c2c(O)c(=O)c(C(=O)NCc3ccc(F)cc3F)cn2N(C)C12CCC(P(=O)(O)O)C2` (stereo not shown) [Compound 36], the IC50 reads like this: under setting [3], 187 nM; under setting [4], 583 nM.
On to `CCOP(=O)(CCN1n2cc(C(=O)NCc3ccc(F)cc3F)c(=O)c(O)c2C(=O)N(CC)C12CCCC2)OCC` [Compound 33], for which the IC50 under setting [3] was 4.4 nM and the IC50 under setting [4] worked out at 163 nM.
Taken in the same sequence, the figures for `CCOP(=O)(OCC)[C@H]1CCC2(C1)N(C)C(=O)c1c(O)c(=O)c(C(=O)NCc3ccc(F)cc3F)cn1N2C` (stereo partly shown) [Compound 21] were 5.3 nM and 32.7 nM.
Consider `CN1C(=O)c2c(O)c(=O)c(C(=O)NCc3ccc(F)cc3F)cn2N(C)C12CC[C@H](P(=O)(O)O)C2` (single isomer, unassigned) [Compound 22], for which the IC50 runs as follows: under setting [1], 120 nM; under setting [2], 340 nM.
Consider `CC(C)OC(=O)OCOP(=O)(OCOC(=O)OC(C)C)[C@@H]1CCC2(C1)N(C)C(=O)c1c(O)c(=O)c(C(=O)NCc3ccc(F)cc3F)cn1N2C` (single isomer, unassigned) [Compound 29], for which the IC50 reads like this: under setting [4], 4.8 nM; under setting [1], 0.2 nM.
Consider `CCOP(=O)(OCC)[C@@H]1CCC2(C1)N(C)C(=O)c1c(O)c(=O)c(C(=O)NCc3ccc(F)cc3F)cn1N2C` (single isomer, unassigned) [Compound 27], for which the IC50 came to 5.6 nM under setting [1] and 78.2 nM under setting [2].
As for `CCOP(=O)(OCC)C1CCC2(C1)N(CC)C(=O)c1c(O)c(=O)c(C(=O)NCc3ccc(F)cc3F)cn1N2C` (stereo not shown) [Compound 35], the IC50 under setting [3] came to 9.4 nM and the IC50 under setting [4] was found to be 126 nM.
